In patent publication US20190142835A1, “INHIBITION OF AUTOPHAGY USING PHOSPHOLIPASE A2 INHIBITORS” (OREGON HEALTH & SCIENCE UNIVERSITY, priority 2017, published 2019):

Key:
ACHN cells [1] = assay: High content imaging screen of 116 small molecule inhibitors for p62 and pS6; format: cell-based, human; details: HCI screen, 72 hr
Text: We used a metastatic human RCC cell line, ACHN. Small molecule inhibitors have been extensively used in RCC over the last decade. […] Importantly, p62 is an autophagy substrate that is degraded along with its cargo, and so is expected to decrease with induction of autophagy. Therefore, we monitored p62 steady-state levels as an initial screen of autophagy flux. Next, we combined the measurement of the p62 with a measurement of mTORC1 activity an independent readout to evaluate autophagy. mTORC1 plays the central role in the anabolic process by increasing protein content through ribosomal biogenesis and elongation of protein translation. Specifically, mTORC1 induces mRNA translation by inducing the activation of p70S6 kinase and the subsequent phosphorylation of the S6 ribosomal protein. To ensure increased cellular biomass, mTORC1 downregulates autophagy. We chose the phosphorylation status of the downstream target of mTORC1 signaling, ribosomal S6 (hereafter S6) as a readout for mTORC1 activity.
To provide a straightforward method for detecting the induction of autophagy, we monitored ACHN cells for small molecule inhibitors which decreased the antibody labelled levels of p62 protein and pS6 phosphorylation (see methods below for detailed experiment procedure). To that end, automated high content imaging (HCl) microscopy was used to detect induction of autophagy as documented by the […] by p62 protein expression and mTORC1 inhibition by the decrease in S6 phosphorylation. The HCl assay was optimized for 384-well plate screening. Drug screening plates were designed and created as previously described.
A 7-point dilution series of 116 small molecule inhibitors covering a 1000× concentration range were plated into three, 384-well plates using the EP Motion automated dispensing system. Control wells with equal volumes of DMSO were included as negative controls. ACHN cells were grown, trypsinized counted, and plated directly into warm drug plates using Multidrop combi dispenser. Plates were incubated for 72 hr and subsequently imaged on the Olympus ScanR Platform at 10× magnification performing 4 images per well in 384 well plates. Single-cell nuclear and cytoplasmic fluorescent intensities were calculated using the Olympus ScanR Analysis Software: the DAPI-positive region of each cell was used as a boundary to quantitate nuclei counts for analysis of cell growth and integrated nuclear DNA staining intensity was used for cell cycle analysis. A 10-pixel extension of the nuclear region (and not including the nuclear region) was used to quantitate cytoplasmic signal of immunofluorescent staining of p62 protein and phosphorylation of S6. Mean signal intensity of each marker in all cells per well was used as the metric for cytoplasmic marker expression (average intensity of pS6 and p62). Unsupervised hierarchical clustering was used to identify compounds that produced similar pS6 and p62 dose response phenotypes after treatment.

[2] = tested on: human RCC and MPN cell lines; assay: Suppression of JAK and STAT3 phosphorylation; format: cell-based; details: multiple human RCC and MPN cell lines
Experimental: (§1) Cells were plated in 6 well dishes and treated the following day with the indicated agents. Treatments were for 24 hours, after which cells were washed with ice cold PBS and lysed with RIPA buffer (Sigma). Phosphatase inhibitor cocktail set II and protease inhibitor cocktail set III (EMD Millipore) were added at the time of lysis. Lysates were centrifuged at 15,000 g×10 min at 4 degrees C. Protein concentrations were calculated based on a BCA assay (Thermo Scientific) generated standard curve. Proteins were resolved using the NuPAGE Novex Mini Gel system on 4% to 12% Bis-Tris Gels (Invitrogen). For western blotting, equal amounts of cell lysates (15-20 μg of protein) were resolved with SDSPAGE, and transferred to membranes. The membrane was probed with primary antibodies, washed, and then incubated with corresponding fluorescent secondary antibodies and washed. The fluorescent signal was captured using LI-COR (Lincoln, Nebr.) Odyssey Imaging System, and fluorescent intensity was quantified using the Odyssey software where indicated. The following antibodies were used for Western blots: p-S6 (S240/244), S6, LC3B, p-Akt(S473), p-Akt(T308), Akt, cleaved caspase3 (Cell Signaling Technologies). p-Stat3 (Y705), Stat3 and β-actin (AC15) (Abcam). Ki67 (Dako) and cleaved caspase3 (Cell Signaling Technologies) were used for immunohistochemistry. […] BX795 and GDC0941 were purchased from Sigma.

ACHN cells [3] = assay: Autophagy flux validation (immunofluorescence, immunoblot, mCherry-EGFP-LC3 reporter, MDC, TEM); format: cell-based, human
Text: Next, we stably expressed a mChery-EGFP-LC3 reported in ACHN cells. This reporter for autophagic flux takes advantage of the fact that EGFP fluorescence is quenched in the acidic environment of the autolysosome relative to mCherry. […] This method to measure flux has been extensively validated and accurately quantitates autophagic flux induction by multiple stimuli and chemical and genetic inhibition of autophagy. […] LC3-I is normally converted into LC3-II (LC3-I covalently bound to phosphatidylethanolamine) during autophagosome formation but is converted back to LC3-I by protease cleavage during autophagosome maturation.
as §1
Slides were plated on coverslips and allowed to adhere for 24 hours. After adherence, cells were treated with drug for 24 hours. After treatment, drug was removed and cells were washed once in PBS. Cells were labeled with a […] concentration of autofluorescent marker monodansylcadaverine (MDC) in PBS for 10 min at 37 C. Cells were fixed in 4% formaldehyde for 15 min at room temperature. Cells were washed in PBS 2×5 min, and mounted on slides using Dako mounting media with dapi. Coverslips were sealed with clear nail polish and imaged with 3DHistech MIDI Scanner as described above.

[4] = tested on: Atg5 deficient cells (Atg5−/−); assay: Autophagy induction in Atg5 deficient MEFs; format: cell-based, mouse
[5] = tested on: PI3K, mTORC1 and mTORC2 signaling; assay: Western blotting of PI3K-AKT-mTOR signaling; format: cell-based, human
Experimental: as §1

ACHN cells [6] = assay: Cellular respiration (XF96 Seahorse, ECAR and OCR); format: cell-based, human; details: XF-96 Extracellular Flux Analyzer
Experimental: Oxygen consumption and extracellular acidification rates were carried out in a XF96 Seahorse Analyzer (Seahorse Bioscience, Billerica, Mass., USA). Cells were plated in the wells of 96-well plates (8×10^3 cells/well; XF96 plates, Seahorse Bioscience, North Billerica, Mass.) and incubated at 37° C. overnight. The next day, cells were treated with indicated drugs for 24 hours and then the medium was changed to XF Assay Medium and loaded with glucose, oligomycin, and 2-DG, respectively, as manufacture's recommendation.

ACHN cells [7] = assay: Lipid droplet staining (Bodipy 493/503), ACHN; format: cell-based, human; details: 24 hrs; p<0.001 vs control
Experimental: Cells were grown on coverslips then treated with drug for 24 hours. Cells were fixed in 4% paraformaldehyde for 15 min, rinsed with PBS. Cells were washed with a 1% saponin solution for 15 min at room temperature then washed several times in PBS to remove detergent. Cells were then incubated in Bodipy (ThermoFisher #D3922) at a final concentration of 1 uM for 10 min. Bodipy was removed and slides were rinsed with PBS then air dried and mounted on slides using Dako mounting media with Dapi.

[8] = transmission electron microscopy

N#CCNC(=O)c1ccc(-c2ccnc(Nc3ccc(N4CCOCC4)cc3)n2)cc1 [CYT387]
S6 phosphorylation (ACHN cells [1]): potently inhibited S6 phosphorylation | induction of autophagy / autophagic flux (ACHN cells [1]): potent inducers of autophagic flux | phosphorylation of JAK and STAT3 [2]: effective in suppressing the phosphorylation of JAK and STAT3 | p62 protein expression and phosphorylated-S6 levels by immunofluorescence staining (ACHN cells [3]; cells on coverslips): decreased p62 protein expression and phosphorylated-S6 levels | phosphorylation of Y705-STAT3 (ACHN cells [3]; immunoblot): decrease in phosphorylation of Y705-STAT3 | LC3-II levels (ACHN cells [3]; immunoblot, more pronounced with E64D/pepstatin): increased LC3-II levels | MDC autoflorescence (ACHN cells [3]; monodansylcadaverine staining): increased MDC autoflorescence | time to reduction in LC3B lipidation after removal of drug (ACHN cells [3]; reversal of autophagy): ≤ 24 h | mChery-EGFP-LC3 reporter of autophagic flux (ACHN cells [3]; stably expressed reporter): decreased expression of green-yellow cells and increased expression of red cells | number of double-membraned autophagosomes (ACHN cells [3]; [8]): increased the number of double-membraned autophagosomes | number of mitochondria and lipid droplets (ACHN cells [3]; [8]): increased number of mitochondria and lipid droplets | autophagy induction [4]: did not induce autophagy | phosphorylation of ERK 1/2 [5]: no effect on the phosphorylation of ERK 1/2 | AKT T308 phosphorylation (readout for PI3K signaling) ([5]; time-dependent): increase in AKT T308 | ECAR (ACHN cells [6]): significantly reduced the ECAR | number of lipid droplets (ACHN cells [7]): increase in the number of lipid droplets | size of lipid droplets (ACHN cells [7]): increase in the size of lipid droplets
